Assay results as given in publication PMC9976286, “Combination of In Silico and In Vitro Screening to Identify Novel Glutamate Carboxypeptidase II Inhibitors” (Journal of Chemical Information and Modeling, 2023).
“And” between values parts separate entries of the source, which are not always exact repeats. Equal entries are not always repeated. Where two headings read alike, the source gives them in different places. Blank lines part the entries; values can stand above or below the compound they belong to.

What was measured:
GCPII = conditions: cited from earlier work; for Ki: read-out: Ki[nM] (54 actives, PDB ID)
Recombinant human GCPII [1] = target: T1, Recombinant human GCPII (Homo sapiens, UniProt Q04609); assay: In vitro GCPII inhibition assay, fluorescence-based, RP-HPLC readout (screening at 20 μM and IC50); assay type: biochemical; conditions: for IC50: substrate concentration at KM (100 nM Glu-Glu dipeptide labeled with fluorescein)
T1 construct: made in house
Method: The inhibitory potency of the selected compounds against GCPII was determined using a fluorescence-based assay developed in-house. Recombinant human GCPII purified as described previously[40],[41] (final concentration 0.02 nM) was preincubated with 20 μM test compound for the screening in 50 mM Tris-HCl, 150 mM NaCl, 0.001% C12E8 at 37 °C for 10 min. The reaction was initiated by the addition of 100 nM Glu-Glu dipeptide labeled with fluorescein (substrate)[42] in a total volume of 50 μL. Following 15 min incubation, the reaction was terminated by the addition of 5 μL of 0.1% TFA in 5% acetonitrile. […] The data were fitted using the GraphPad Prism software, and IC50 values were calculated from the inhibition curves of two independent experiments using a nonlinear analysis protocol.

Recombinant human GCPII [2] = target: T1, Recombinant human GCPII; assay: GCPII IC50 with substrate concentration 10x above KM (mode of inhibition); assay type: biochemical; conditions: for Increase of GCPII IC50 at 10x KM substrate versus KM: IC50 at 1 μM substrate relative to IC50 at 100 nM substrate; for IC50: substrate concentration 10 times above KM (1 μM)
Method: The inhibitory potency of the selected compounds against GCPII was determined using a fluorescence-based assay developed in-house. Recombinant human GCPII purified as described previously[40],[41] (final concentration 0.02 nM) was preincubated with 20 μM test compound for the screening in 50 mM Tris-HCl, 150 mM NaCl, 0.001% C12E8 at 37 °C for 10 min. […] Following 15 min incubation, the reaction was terminated by the addition of 5 μL of 0.1% TFA in 5% acetonitrile. Reaction mixtures were then analyzed by RP-HPLC with a Kinetex 2.6 μm XB-C18 100 Å column with a fluorescence detector set to λEX/λEM = 492/516. The GCPII inhibition in the SPECS hits samples was calculated using the noninhibited reaction as a control. Inhibition constants of the compounds active in the in vitro screening were determined using increasing concentrations of inhibitors. The data were fitted using the GraphPad Prism software, and IC50 values were calculated from the inhibition curves of two independent experiments using a nonlinear analysis protocol.

Recombinant human HDAC10 = target: T2, Recombinant human HDAC10 (Homo sapiens, UniProt Q969S8); assay: Inhibitor specificity: fluorescence-based HDAC10 activity assay; assay type: biochemical; conditions: for HDAC10 inhibition (in words): off-target specificity
T2 construct: made in house
T2 sequence (Q969S8 1-669): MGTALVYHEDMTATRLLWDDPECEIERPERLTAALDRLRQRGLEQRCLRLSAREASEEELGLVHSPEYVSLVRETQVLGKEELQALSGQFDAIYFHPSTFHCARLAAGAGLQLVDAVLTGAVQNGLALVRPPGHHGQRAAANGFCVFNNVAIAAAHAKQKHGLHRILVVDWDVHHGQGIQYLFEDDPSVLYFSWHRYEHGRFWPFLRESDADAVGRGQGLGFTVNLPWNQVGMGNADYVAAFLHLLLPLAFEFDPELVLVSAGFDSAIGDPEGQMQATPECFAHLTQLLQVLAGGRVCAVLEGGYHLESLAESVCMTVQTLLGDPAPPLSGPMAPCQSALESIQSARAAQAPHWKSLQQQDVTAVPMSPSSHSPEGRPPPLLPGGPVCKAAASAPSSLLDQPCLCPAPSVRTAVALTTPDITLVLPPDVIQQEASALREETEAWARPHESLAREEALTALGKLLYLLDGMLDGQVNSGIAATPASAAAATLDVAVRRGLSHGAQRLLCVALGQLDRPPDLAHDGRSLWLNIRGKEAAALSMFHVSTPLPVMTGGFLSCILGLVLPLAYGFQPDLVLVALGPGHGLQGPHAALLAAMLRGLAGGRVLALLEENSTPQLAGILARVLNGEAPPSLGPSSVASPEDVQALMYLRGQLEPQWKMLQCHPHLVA
Method: The fluorescence-based activity assay used was developed in-house. Recombinant human HDAC10 purified as described previously[43] (0.5 nM) was preincubated with dilution series of compounds in 50 mM 4-(2-hydroxyethyl)-1-piperazineethanesulfonic acid (HEPES), 140 mM NaCl, 10 mM KCl, 2 mg/mL bovine serum albumin (BSA), and 1 mM tris(2-carboxyethyl) phosphine, pH 7.4 at 37 °C for 10 min. The reaction was initiated by the addition of a 10 μM substrate (spermidine labeled with fluorescein, provided by the group of Prof. Mike Schutkowski)[43] in a total volume of 50 μL. Following 30-min incubation, the reaction was terminated by the addition of 5 μL of 0.5% acetic acid and centrifuged at 2000g at room temperature for 15 min to remove precipitated BSA. […] The HDAC10 inhibition was calculated using the noninhibited reaction as a control. Inhibition constants of the compounds were determined using increasing concentrations of inhibitors. The data were fitted using the GraphPad Prism software,[44] and IC50 values were calculated from the inhibition curves of two independent experiments using a nonlinear analysis protocol.

[3] = dataset of 54 GCPII ligands compiled from the PDB, read-out: IC50[nM] (54 actives, PDB ID)
[4] = dataset of 54 GCPII ligands compiled from the PDB
[5] = read-out: GCPII IC50 at substrate concentration 10 times above the KM
[6] = 10 μM fluorescein-labeled spermidine substrate, read-out: HDAC10 IC50

T1 sequence (Q04609 whole entry): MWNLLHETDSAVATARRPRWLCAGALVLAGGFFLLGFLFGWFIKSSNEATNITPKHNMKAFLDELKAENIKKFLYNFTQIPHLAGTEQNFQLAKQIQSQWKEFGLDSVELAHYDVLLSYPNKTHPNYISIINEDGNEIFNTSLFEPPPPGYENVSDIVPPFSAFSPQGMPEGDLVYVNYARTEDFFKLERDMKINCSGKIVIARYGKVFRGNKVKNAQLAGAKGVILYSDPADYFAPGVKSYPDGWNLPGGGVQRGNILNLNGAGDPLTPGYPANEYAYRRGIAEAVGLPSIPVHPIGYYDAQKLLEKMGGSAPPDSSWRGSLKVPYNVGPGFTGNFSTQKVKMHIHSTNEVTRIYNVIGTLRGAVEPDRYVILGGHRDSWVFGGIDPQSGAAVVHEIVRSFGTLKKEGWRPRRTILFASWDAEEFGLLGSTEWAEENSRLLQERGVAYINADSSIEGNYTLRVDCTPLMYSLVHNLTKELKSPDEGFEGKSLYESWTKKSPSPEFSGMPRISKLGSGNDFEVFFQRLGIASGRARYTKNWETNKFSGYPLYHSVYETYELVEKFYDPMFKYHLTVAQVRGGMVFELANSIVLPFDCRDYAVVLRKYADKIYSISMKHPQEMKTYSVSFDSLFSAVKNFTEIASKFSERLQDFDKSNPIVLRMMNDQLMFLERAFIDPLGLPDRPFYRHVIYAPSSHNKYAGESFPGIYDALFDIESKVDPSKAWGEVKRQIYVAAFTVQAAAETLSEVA

SMILES: O=C(O)CC[C@H](NC(=O)N[C@@H](CCCCn1cc(COCCOCCNc2ccc([N+](=O)[O-])cc2[N+](=O)[O-])nn1)C(=O)O)C(=O)O [Compound 2XEI]
IC50 (GCPII; [3]): 0.54 nM

SMILES: O=C(O)CC[C@H](C[P@@](=O)(O)CCC(=O)O)C(=O)O [Compound 3BHX]
IC50 (GCPII; [3]): 0.7 nM

SMILES: N[C@@H](CC[P@](=O)(O)C[C@@H](CCC(=O)O)C(=O)O)C(=O)O [Compound 3BI0]
IC50 (GCPII; [3]): 14 nM

SMILES: CN(Cc1cnc2nc(N)nc(N)c2n1)c1ccc(C(=O)N[C@H](CC[P@@](=O)(O)C[C@@H](CCC(=O)O)C(=O)O)C(=O)O)cc1 [Compound 3BI1, (2S)-2-{[(R)-[(3R)-3-carboxy-3-{[(4-{[(2,4-diaminopteridin-6-yl)methyl](methyl)amino}phenyl)carbonyl]amino}propyl](hydroxy)phosphoryl]methyl}pentanedioic acid]
IC50 (GCPII; [3]): 0.12 nM

SMILES: O=C(O)CC[C@H](NC(=O)N[C@@H](CSCc1ccc(F)cc1)C(=O)O)C(=O)O [Compound 3D7D]
IC50 (GCPII; [3]): 14 nM

SMILES: O=C(O)CC[C@H](NC(=O)N[C@@H](Cc1ccc(O)c(I)c1)C(=O)O)C(=O)O [Compound 3D7F]
IC50 (GCPII; [3]): 0.5 nM

SMILES: CSC[C@H](NC(=O)N[C@@H](CCC(=O)O)C(=O)O)C(=O)O [Compound 3D7G]
IC50 (GCPII; [3]): 17 nM

SMILES: CSCC[C@H](NC(=O)N[C@@H](CCCCNC(=O)c1ccc(I)cc1)C(=O)O)C(=O)O [Compound 3SJF]
IC50 (GCPII; [3]): 23 nM

SMILES: O=C(O)CC[C@H](N[P@](=O)(O)OCCC[C@H](NC(=O)CC[C@H](NC(=O)c1ccc(F)cc1)C(=O)O)C(=O)O)C(=O)O [Compound 4LQG]
IC50 (GCPII; [3]): 1.3 nM

SMILES: CC(=O)N(CCCC[C@H](NC(=O)N[C@@H](CCC(=O)O)C(=O)O)C(=O)O)Cc1ccc(Br)cc1 [Compound 4NGM]
Ki (GCPII; [4]): 0.0449 nM

SMILES: O=CNCCCC[C@H](NC(=O)N[C@@H](CCC(=O)O)C(=O)O)C(=O)O [Compound 4NGN]
Ki (GCPII; [4]): 0.268 nM

SMILES: O=C(N[C@@H](CCCCNC(=O)c1ccc(I)cc1)C(=O)O)NC1(C(=O)O)CC1 [Compound 4OC0]
Ki (GCPII; [4]): 318 nM

SMILES: O=C(N[C@@H](CCCCNC(=O)c1ccc(I)cc1)C(=O)O)N[C@@H](C[C@H]1CO1)C(=O)O [Compound 4OC1]
Ki (GCPII; [4]): 254 nM

SMILES: C#CC[C@H](NC(=O)N[C@@H](CCCCNC(=O)c1ccc(I)cc1)C(=O)O)C(=O)O [Compound 4OC2]
Ki (GCPII; [4]): 5.3 nM

SMILES: O=C(N[C@@H](CCCCNC(=O)c1ccc(I)cc1)C(=O)O)N[C@@H](Cc1ccco1)C(=O)O [Compound 4OC3]
Ki (GCPII; [4]): 5.3 nM

SMILES: O=C(N[C@@H](CCCCNC(=O)c1ccc(I)cc1)C(=O)O)N[C@@H](Cc1ccncc1)C(=O)O [Compound 4OC4]
Ki (GCPII; [4]): 105 nM

SMILES: O=C(N[C@@H](CCCCNC(=O)c1ccc(I)cc1)C(=O)O)N[C@H](C(=O)O)c1ccc(O)cc1 [Compound 4OC5]
Ki (GCPII; [4]): 85 nM

SMILES: O=C(O)CC[C@H](N[P@](=O)(O)OCCNC(=O)c1ccccc1)C(=O)O [Compound 4P4D]
IC50 (GCPII; [3]): 1800 nM

SMILES: O=C(O)CC[C@H](N[P@](=O)(O)OCCCCc1ccccc1)C(=O)O [Compound 4P4E]
IC50 (GCPII; [3]): 180 nM

SMILES: O=C(O)CC[C@H](N[P@](=O)(O)OCc1ccc(-c2ccccc2)cc1)C(=O)O [Compound 4P4F]
IC50 (GCPII; [3]): 168 nM

SMILES: O=C(O)CC[C@H](N[P@](=O)(O)OC[C@H](NC(=O)c1ccccc1)C(=O)O)C(=O)O [Compound 4P4I]
IC50 (GCPII; [3]): 35 nM

SMILES: O=C(O)CC[C@H](N[P@](=O)(O)OC[C@@H](NC(=O)c1ccccc1)C(=O)O)C(=O)O [Compound 4P4J]
IC50 (GCPII; [3]): 700 nM

SMILES: CC[C@@H](C)[C@H](NC(=O)c1ccc(F)cc1)C(=O)N[C@@H](CO[P@@](=O)(O)N[C@@H](CCC(=O)O)C(=O)O)C(=O)O [Compound 4P44]
IC50 (GCPII; [3]): 16 nM

SMILES: CC(C)[C@H](NC(=O)c1ccc(F)cc1)C(=O)N[C@@H](CO[P@@](=O)(O)N[C@@H](CCC(=O)O)C(=O)O)C(=O)O [Compound 4P45]
IC50 (GCPII; [3]): 16 nM

SMILES: O=C(CC[C@@H](Cc1ccc(C(=O)O)cc1)C(=O)O)NO [Compound 5D29]
IC50 (GCPII; [3]): 97 nM

SMILES: O=C(CC[C@H](Cc1ccc(C(=O)O)cc1)C(=O)O)NO [Compound 5ELY]
IC50 (GCPII; [3]): 44 nM

SMILES: O=C(O)CC[C@H](NC(=O)N[C@@H](CCCC(=O)NCc1ccc(F)cc1)C(=O)O)C(=O)O [Compound 5OF0]
IC50 (GCPII; [3]): 2.32 nM

SMILES: O=C(O)CC[C@H](NC(=O)N[C@@H](CCCC(=O)Nc1ccc(F)cc1)C(=O)O)C(=O)O [Compound 6H7Y]
IC50 (GCPII; [3]): 0.35 nM

SMILES: CN(C(=O)CCC[C@H](NC(=O)N[C@@H](CCC(=O)O)C(=O)O)C(=O)O)c1ccc(F)nc1 [Compound 6H7Z]
IC50 (GCPII; [3]): 0.13 nM

SMILES: O=C(O)CC[C@H](NC(=O)N[C@@H](CCCC(=O)Nc1ccc(F)nc1)C(=O)O)C(=O)O [Compound 6HKJ]
IC50 (GCPII; [3]): 0.99 nM

IC50 (Recombinant human GCPII [1]): 4500 nM and 4510 nM
Increase of GCPII IC50 at 10x KM substrate versus KM (Recombinant human GCPII [2]): approximately twice
IC50 (Recombinant human GCPII [2]; read-out: GCPII IC50 10x > KM): 9390 nM
IC50 (Recombinant human GCPII [2]; [5]): 9400 ± 100 nM
IC50 (Recombinant human HDAC10; [6]): 2210 nM and 2200 nM
SMILES: O=C(O)CSC1=C(SCC(=O)O)C(=O)C(SCC(=O)O)=C(SCC(=O)O)C1=O [Compound 17]

inhibition at 20 µM (Recombinant human GCPII [1]; compound at 20 μM, 100 nM fluorescein-labeled Glu-Glu dipeptide substrate, read-out: Inhibition [%] of GCPII activity): > 50%
IC50 (Recombinant human GCPII [1]): 15000 nM
Increase of GCPII IC50 at 10x KM substrate versus KM (Recombinant human GCPII [2]): approximately twice
IC50 (Recombinant human GCPII [2]; read-out: GCPII IC50 10x > KM): 27600 nM
IC50 (Recombinant human GCPII [2]; [5]): > 20000 nM
IC50 (Recombinant human HDAC10; [6]): > 100000 nM
HDAC10 inhibition (in words) (Recombinant human HDAC10): did not exhibit any HDAC10 inhibition
SMILES: O=[N+]([O-])c1ccc(C(CCc2nnn[nH]2)(CCc2nnn[nH]2)c2nnn[nH]2)cc1 [Compound 18]

IC50 (Recombinant human GCPII [1]): 353 ± 24 nM
Increase of GCPII IC50 at 10x KM substrate versus KM (Recombinant human GCPII [2]): 4 fold
IC50 (Recombinant human GCPII [2]; read-out: GCPII IC50 10x > KM): 1350 nM
IC50 (Recombinant human GCPII [2]; [5]): 1400 ± 100 nM
IC50 (Recombinant human HDAC10; HDAC10 IC50, 10 μM fluorescein-labeled spermidine substrate): > 100000 nM
HDAC10 inhibition (in words) (Recombinant human HDAC10): did not exhibit any HDAC10 inhibition
SMILES: O=C(O)c1ccccc1-c1c2ccc(=O)c(I)c-2oc2c(I)c(OS(=O)(=O)c3ccc(Br)cc3)ccc12 [Compound 46]

SMILES: O=C(O)CC[C@H](NC(=O)N[C@@H](CCCC(=O)N(CCNC(=O)c1ccc(F)nc1)c1ccccc1)C(=O)O)C(=O)O [RNA 2-49-1]
IC50 (GCPII; [3]): 0.075 nM
IC50 (GCPII; read-out: GCPII IC50): 0.08 nM
